Measured values as given in ChEMBL document CHEMBL5465560, “Selectivity Literature for EUbOPEN Chemogenomic Library” (2024).

What was measured:
[1] = biological target: T1, cGMP-dependent protein kinase 1 (Homo sapiens) (UniProt Q13976); settings: at 10 µM
T1 sequence (whole entry): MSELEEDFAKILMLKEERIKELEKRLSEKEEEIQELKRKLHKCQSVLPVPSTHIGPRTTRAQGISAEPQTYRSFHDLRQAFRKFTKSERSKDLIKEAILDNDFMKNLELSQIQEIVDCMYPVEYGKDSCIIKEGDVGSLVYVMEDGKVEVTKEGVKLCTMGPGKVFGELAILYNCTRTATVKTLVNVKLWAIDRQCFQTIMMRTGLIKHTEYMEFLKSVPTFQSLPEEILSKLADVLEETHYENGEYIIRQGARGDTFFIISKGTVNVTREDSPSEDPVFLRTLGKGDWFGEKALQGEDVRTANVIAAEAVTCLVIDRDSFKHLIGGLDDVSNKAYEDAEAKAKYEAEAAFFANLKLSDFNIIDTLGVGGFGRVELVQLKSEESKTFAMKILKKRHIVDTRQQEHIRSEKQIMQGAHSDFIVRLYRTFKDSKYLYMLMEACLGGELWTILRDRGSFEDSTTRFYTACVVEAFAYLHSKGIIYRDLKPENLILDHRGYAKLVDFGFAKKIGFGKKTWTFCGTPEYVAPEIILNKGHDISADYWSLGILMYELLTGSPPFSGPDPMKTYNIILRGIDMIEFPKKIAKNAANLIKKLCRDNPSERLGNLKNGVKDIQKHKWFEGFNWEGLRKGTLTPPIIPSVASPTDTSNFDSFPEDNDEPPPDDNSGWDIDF

[2] = biological target: Protein kinase C eta type (Homo sapiens) (UniProt P24723); assay: Selectivity interaction (KinomeScan (DiscoverX)) EUB0000092b PRKCH; settings: at 10 µM
[3] = biological target: Mitogen-activated protein kinase 11 (Homo sapiens) (UniProt Q15759); assay: Selectivity interaction (Upstate Kinase Profiler service (Millipore)) EUB0000056c MAPK11; settings: at 1 µM
Chain of Mitogen-activated protein kinase 11 (Homo sapiens) (Q15759 whole entry): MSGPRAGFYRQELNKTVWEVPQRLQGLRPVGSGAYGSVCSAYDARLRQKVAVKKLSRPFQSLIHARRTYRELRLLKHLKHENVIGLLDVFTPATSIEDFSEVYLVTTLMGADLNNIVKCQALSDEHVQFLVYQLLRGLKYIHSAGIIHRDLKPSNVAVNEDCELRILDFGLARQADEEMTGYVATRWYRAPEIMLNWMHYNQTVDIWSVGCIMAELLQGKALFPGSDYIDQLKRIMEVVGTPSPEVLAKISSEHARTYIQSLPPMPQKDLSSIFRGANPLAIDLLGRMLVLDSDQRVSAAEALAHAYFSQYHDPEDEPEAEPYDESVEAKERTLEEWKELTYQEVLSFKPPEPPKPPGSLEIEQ

[4] = biological target: Casein kinase II subunit alpha' (Homo sapiens) (UniProt P19784); assay: Selectivity interaction (KinomeScan (DiscoverX)) EUB0000655a CSNK2A2; settings: at 10 µM
[5] = test system: eIF-2-alpha kinase GCN2 (Homo sapiens), Q9P2K8 [S808G]; assay: Selectivity interaction (KinomeScan (DiscoverX)) EUB0000655a EIF2AK4; settings: at 10 µM
Chain of eIF-2-alpha kinase GCN2 (Homo sapiens), Q9P2K8 [S808G] (Q9P2K8 whole entry S808G): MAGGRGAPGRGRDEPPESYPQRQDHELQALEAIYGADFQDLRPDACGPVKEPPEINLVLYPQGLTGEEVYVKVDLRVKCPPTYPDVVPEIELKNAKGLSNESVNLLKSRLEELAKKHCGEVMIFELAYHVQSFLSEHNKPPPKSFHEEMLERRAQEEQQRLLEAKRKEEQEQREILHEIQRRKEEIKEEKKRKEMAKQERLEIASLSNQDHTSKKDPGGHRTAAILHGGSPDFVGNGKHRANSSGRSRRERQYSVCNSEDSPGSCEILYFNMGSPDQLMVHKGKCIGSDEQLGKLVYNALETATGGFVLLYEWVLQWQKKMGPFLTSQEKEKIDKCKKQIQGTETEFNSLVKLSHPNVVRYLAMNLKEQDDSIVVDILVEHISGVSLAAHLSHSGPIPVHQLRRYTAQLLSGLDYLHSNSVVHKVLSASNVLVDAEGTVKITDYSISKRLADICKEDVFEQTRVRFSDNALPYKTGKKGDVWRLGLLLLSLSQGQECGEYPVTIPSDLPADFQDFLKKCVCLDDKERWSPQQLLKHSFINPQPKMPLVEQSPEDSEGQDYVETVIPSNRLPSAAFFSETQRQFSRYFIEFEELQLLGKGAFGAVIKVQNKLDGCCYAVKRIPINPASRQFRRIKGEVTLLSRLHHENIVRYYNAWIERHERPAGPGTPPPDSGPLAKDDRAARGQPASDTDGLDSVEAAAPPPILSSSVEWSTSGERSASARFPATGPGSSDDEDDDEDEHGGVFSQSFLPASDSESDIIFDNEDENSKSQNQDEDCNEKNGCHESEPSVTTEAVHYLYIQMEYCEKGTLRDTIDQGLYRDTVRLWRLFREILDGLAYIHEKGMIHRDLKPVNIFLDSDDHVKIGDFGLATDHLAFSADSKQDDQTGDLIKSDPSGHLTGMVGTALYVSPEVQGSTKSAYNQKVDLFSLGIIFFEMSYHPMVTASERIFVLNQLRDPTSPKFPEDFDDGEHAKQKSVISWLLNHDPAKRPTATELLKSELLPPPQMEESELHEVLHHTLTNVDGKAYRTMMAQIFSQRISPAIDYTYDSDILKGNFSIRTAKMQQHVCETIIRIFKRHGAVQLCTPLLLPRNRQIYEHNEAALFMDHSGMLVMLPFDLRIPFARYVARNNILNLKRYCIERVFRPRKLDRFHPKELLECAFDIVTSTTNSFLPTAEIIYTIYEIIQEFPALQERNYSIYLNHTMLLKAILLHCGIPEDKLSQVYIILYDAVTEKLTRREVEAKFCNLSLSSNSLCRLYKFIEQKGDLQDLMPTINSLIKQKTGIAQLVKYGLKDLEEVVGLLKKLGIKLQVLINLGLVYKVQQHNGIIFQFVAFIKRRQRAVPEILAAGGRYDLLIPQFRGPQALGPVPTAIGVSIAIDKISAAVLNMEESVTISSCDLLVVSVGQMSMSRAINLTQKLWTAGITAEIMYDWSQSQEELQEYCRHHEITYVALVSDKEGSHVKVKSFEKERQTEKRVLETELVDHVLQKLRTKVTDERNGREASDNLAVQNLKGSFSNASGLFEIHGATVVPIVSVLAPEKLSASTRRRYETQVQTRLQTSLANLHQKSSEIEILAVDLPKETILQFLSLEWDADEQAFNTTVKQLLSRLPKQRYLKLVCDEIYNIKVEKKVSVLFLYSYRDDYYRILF

[6] = biological target: Ribosomal protein S6 kinase alpha-4 (Homo sapiens) (UniProt O75676); assay: Selectivity interaction (KinomeScan (DiscoverX)) EUB0001079a RPS6KA4; settings: at 1 µM
Chain of Ribosomal protein S6 kinase alpha-4 (Homo sapiens) (O75676 whole entry, looked up): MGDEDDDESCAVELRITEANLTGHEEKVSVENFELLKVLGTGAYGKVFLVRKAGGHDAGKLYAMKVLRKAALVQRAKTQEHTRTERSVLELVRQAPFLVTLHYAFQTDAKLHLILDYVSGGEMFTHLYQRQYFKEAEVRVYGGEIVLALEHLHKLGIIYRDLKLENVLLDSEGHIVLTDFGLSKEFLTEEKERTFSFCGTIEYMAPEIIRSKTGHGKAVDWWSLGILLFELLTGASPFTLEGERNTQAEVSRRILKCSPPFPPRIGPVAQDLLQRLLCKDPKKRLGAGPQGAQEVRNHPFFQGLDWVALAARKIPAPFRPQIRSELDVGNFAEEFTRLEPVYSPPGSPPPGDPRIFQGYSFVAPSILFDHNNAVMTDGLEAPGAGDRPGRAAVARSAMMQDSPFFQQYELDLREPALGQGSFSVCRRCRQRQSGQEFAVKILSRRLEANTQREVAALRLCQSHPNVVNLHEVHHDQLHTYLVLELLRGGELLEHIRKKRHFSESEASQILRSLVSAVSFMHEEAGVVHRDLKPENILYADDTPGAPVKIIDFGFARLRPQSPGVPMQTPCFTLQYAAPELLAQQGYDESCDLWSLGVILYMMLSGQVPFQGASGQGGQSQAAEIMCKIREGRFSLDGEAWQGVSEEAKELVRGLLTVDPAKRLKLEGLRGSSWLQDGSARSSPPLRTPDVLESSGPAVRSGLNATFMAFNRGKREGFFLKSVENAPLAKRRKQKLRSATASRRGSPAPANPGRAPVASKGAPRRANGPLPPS

[7] = biological target: T2, Tyrosine-protein kinase ITK/TSK (Homo sapiens) (UniProt Q08881); assay: Selectivity interaction (Kinase panel (KiNativ target engagement assay in Jurkat cells)) EUB0001635a ITK; format: cell-based; settings: at 1 µM
T2 sequence (whole entry): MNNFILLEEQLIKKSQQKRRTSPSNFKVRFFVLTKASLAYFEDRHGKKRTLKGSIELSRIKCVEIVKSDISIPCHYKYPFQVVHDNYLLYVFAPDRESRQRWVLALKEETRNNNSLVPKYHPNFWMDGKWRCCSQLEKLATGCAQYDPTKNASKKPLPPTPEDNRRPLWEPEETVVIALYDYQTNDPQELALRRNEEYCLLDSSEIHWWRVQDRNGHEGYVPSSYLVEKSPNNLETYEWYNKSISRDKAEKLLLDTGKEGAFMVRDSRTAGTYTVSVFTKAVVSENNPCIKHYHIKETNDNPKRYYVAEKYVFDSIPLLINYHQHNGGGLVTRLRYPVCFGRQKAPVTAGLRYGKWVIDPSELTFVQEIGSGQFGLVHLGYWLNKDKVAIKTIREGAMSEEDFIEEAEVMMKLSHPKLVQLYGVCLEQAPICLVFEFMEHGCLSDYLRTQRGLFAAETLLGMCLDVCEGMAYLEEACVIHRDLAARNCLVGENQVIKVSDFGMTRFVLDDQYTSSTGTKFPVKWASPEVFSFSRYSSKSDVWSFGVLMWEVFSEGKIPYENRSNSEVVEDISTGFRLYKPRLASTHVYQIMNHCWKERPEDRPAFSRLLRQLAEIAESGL

[8] = biological target: Non-receptor tyrosine-protein kinase TYK2 (Homo sapiens, UniProt P29597); assay: Selectivity interaction (Kinase panel (Invitrogen)) EUB0000639a TYK2; settings: at 200 nM
Chain of Non-receptor tyrosine-protein kinase TYK2 (P29597 whole entry): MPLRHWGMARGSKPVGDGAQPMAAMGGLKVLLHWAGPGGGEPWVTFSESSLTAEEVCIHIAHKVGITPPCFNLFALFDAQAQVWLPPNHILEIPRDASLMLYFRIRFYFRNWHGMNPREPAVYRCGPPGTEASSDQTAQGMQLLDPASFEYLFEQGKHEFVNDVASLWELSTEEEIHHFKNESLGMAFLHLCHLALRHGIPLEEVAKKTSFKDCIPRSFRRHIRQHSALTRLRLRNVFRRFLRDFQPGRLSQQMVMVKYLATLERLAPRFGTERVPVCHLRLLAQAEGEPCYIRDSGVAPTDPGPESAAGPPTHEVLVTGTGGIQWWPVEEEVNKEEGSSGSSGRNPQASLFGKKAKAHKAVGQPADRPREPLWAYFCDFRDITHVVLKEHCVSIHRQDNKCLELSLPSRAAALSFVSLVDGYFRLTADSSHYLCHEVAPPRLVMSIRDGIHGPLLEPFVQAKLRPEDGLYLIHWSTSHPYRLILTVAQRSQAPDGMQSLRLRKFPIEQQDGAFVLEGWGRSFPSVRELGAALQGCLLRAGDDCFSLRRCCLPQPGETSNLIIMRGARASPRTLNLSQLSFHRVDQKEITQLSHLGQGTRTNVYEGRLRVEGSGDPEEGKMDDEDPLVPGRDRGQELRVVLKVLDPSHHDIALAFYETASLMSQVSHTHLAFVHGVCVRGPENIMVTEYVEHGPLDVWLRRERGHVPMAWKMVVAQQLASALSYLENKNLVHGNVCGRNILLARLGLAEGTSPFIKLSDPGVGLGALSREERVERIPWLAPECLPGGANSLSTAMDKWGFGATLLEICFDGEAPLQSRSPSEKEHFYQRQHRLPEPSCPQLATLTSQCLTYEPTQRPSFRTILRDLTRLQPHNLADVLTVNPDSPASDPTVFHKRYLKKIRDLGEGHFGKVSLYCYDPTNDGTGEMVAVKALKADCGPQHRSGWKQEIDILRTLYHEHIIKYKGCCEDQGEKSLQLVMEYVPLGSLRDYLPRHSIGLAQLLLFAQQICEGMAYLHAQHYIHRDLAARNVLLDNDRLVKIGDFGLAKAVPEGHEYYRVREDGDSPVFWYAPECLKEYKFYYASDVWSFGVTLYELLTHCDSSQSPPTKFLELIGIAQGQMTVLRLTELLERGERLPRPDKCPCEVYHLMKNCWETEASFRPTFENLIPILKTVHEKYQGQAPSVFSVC

[9] = biological target: Tyrosine-protein kinase Yes (Homo sapiens) (UniProt P07947); assay: Selectivity interaction (KinomeScan (DiscoverX)) EUB0000607a YES1; settings: at 10 µM
[10] = biological target: Myosin light chain kinase, smooth muscle (Homo sapiens, UniProt Q15746); assay: Selectivity interaction (KinomeScan (DiscoverX)) EUB0001049a MYLK; settings: at 1 µM
[11] = Selectivity interaction (KinomeScan (DiscoverX)) EUB0001049a PKNB; settings: at 1 µM
[12] = test system: Tyrosine-protein kinase ABL1 (Homo sapiens), P00519 [H396P]; assay: Selectivity interaction (KinomeScan (DiscoverX)) EUB0000045b ABL1; settings: at 10 µM
[13] = test system: Fibroblast growth factor receptor 3 (Homo sapiens), P22607 [G697C]; assay: (§1) Selectivity interaction (KinomeScan (DiscoverX)) EUB0001619a FGFR3; settings: at 1 µM
Chain of Fibroblast growth factor receptor 3 (Homo sapiens), P22607 [G697C] (P22607 whole entry G697C): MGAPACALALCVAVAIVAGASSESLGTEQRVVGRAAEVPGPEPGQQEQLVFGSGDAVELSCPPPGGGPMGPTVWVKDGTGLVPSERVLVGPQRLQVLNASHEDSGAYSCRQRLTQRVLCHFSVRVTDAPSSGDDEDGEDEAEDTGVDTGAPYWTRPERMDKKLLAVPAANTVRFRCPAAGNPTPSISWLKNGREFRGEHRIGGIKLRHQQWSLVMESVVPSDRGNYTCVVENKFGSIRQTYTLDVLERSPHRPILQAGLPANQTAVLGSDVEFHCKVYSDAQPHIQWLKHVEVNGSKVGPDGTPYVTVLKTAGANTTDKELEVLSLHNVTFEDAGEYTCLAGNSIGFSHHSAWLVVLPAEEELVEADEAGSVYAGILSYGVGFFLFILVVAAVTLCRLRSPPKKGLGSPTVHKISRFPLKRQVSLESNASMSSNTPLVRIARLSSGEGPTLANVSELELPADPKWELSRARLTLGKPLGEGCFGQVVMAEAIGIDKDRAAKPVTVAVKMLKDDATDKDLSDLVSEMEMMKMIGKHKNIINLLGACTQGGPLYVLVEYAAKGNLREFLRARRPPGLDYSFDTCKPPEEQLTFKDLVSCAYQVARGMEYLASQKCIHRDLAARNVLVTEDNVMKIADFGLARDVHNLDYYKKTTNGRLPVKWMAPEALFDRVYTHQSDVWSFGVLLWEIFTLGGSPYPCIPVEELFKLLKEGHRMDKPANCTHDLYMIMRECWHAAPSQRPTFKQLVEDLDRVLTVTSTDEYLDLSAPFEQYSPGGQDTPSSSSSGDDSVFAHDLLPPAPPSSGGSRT

[14] = biological target: Fibroblast growth factor receptor 3 (Homo sapiens, UniProt P22607); assay: as §1; settings: at 1 µM
[15] = biological target: T3, Serine/threonine-protein kinase Nek2 (Homo sapiens) (UniProt P51955); assay: Selectivity interaction (KinomeScan (DiscoverX)) EUB0001619a NEK2; settings: at 1 µM
T3 sequence (whole entry): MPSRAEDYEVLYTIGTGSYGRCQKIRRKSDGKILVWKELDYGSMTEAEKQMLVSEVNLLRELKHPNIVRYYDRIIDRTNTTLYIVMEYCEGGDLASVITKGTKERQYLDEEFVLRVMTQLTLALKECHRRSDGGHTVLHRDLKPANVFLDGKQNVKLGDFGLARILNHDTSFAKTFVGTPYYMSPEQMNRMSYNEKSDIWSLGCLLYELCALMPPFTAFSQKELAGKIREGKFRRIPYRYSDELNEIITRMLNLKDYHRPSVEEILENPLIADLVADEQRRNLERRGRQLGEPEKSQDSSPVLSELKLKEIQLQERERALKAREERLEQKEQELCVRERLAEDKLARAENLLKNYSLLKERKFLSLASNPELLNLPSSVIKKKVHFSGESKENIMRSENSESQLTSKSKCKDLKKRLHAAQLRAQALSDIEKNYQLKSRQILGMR

`CCN(CC)CCCCNc1ncc2cc(-c3cc(OC)cc(OC)c3)c(NC(=O)NC(C)(C)C)nc2n1` gave a % of control [1] of 100%.

In the case of `CCC(=O)N1CCN(c2ccc(-n3c(=O)ccc4cnc5ccc(-c6cnc7ccccc7c6)cc5c43)cc2C(F)(F)F)CC1`, the % of control [2] is reported as 92%.

Work on `Cc1ccc(-c2ccc3c(ccc4sc5c(c43)NC[C@@H](C)NC5=O)n2)cn1` yielded a % of inhibition [3] of 5%.

Work on `CN(C)CCOc1ccc(-c2nc(-c3ccncc3)c(-c3ccc4c(c3)CC/C4=N\O)[nH]2)cc1` yielded a % of control [4] of 74% and a % of control [5] of 97%.

With `Nc1cnc(N2CCc3cc(S(=O)(=O)Nc4c(F)cc(Cl)cc4F)cc(N4CCCC4=O)c32)nc1` [TP-020n] the % of control [6] was 100%.

With `C=CC(=O)Nc1ccc(C(=O)Nc2[nH]nc3c2CN(C(=O)N[C@H](CN(C)C)c2ccccc2)C3(C)C)cc1` the % of engagement ([7]; Selectivity number of off-targets 0.0, Selectivity number of targets 233.0, Source Knowledge https://www.sciencedirect.com/science/article/pii/S2451945619300674?via%3Dihub) was 0.3% and the % of engagement [7] was 2.5%.

`CC[C@@H]1[C@H](F)C(=O)N[C@@H]1COc1nccc2cc(C(N)=O)c(OC)cc12` [ZIMLOVISERTIB] showed a % of inhibition [8] of 5.13%.

In the case of `CNC(=O)Nc1ccc(-c2nc(N3CC4CCC(C3)O4)c3cnn(C4CCC5(CC4)OCCO5)c3n2)cc1`, the % of control [9] is reported as 97%.

Molecule `COc1cc(Nc2nc(C)cc(-c3cnn4nc(OC)ccc34)n2)cc(C(F)(F)F)c1` has a % of control [10] of 58% and a % of control [11] of 71%.

Molecule `C=CC(=O)Nc1cc(-n2c(=O)ccc3cnc4ccc(-c5ccc(NS(C)(=O)=O)cc5)cc4c32)ccc1C` has a % of control [12] of 44%.

In the case of `N#Cc1cccc(-c2c[nH]c3ncnc(N4CCOCC4)c23)c1`, the % of control [13] is reported as 100%, the % of control [14] is reported as 100% and the % of control [15] is reported as 100%.
